US9334246B2, “Substituted triazines for malaria treatment and chemoprophylaxis” (The United States of America, as represented by the …, priority 2013, dated 2016)
In brackets after ≈: the same amount, converted by molar mass.

Assays:
Format in all cases: cell-based, Plasmodium falciparum
P. falciparum D6 = experiment: Malaria SYBR Green Fluorescence Assay, D6 strain
P. falciparum W2 = experiment: Malaria SYBR Green Fluorescence Assay, W2 strain
P. falciparum C235 = experiment: Malaria SYBR Green Fluorescence Assay, C235 strain
[1] = Plasmodium falciparum, SYBR Green Assay

SMILES	D6 (SYBR Green Assay IC50) (P. falciparum D6) [µg/mL]	W2 (SYBR Green Assay IC50) (P. falciparum W2) [µg/mL]	C235 (SYBR Green Assay IC50) (P. falciparum C235) [µg/mL]	D6 (P. falciparum D6; SYBR Green Assay) [ng/mL]	W2 (P. falciparum W2; SYBR Green Assay) [ng/mL]	C235 (P. falciparum C235; SYBR Green Assay) [ng/mL]	other results
CN1CCN(c2nc(-c3ccccc3[N+](=O)[O-])nc(C(Cl)(Cl)Cl)n2)CC1 [Cmpd 549]	0.503	0.236	0.663	–	–	–	–
CN1CCC(Nc2nc(-c3ccccc3[N+](=O)[O-])nc(C(Cl)(Cl)Cl)n2)CC1 [Cmpd 550]	0.04805	0.02059	0.03585	–	–	–	–
CCN1CCC(CNc2nc(-c3ccccc3[N+](=O)[O-])nc(C(Cl)(Cl)Cl)n2)CC1 [Cmpd 551]	0.07027	0.0356	0.05653	–	–	–	–
O=[N+]([O-])c1ccccc1-c1nc(N2CCCN(CCO)CC2)nc(C(Cl)(Cl)Cl)n1 [Cmpd 552]	0.1704	0.07605	0.1756	–	–	–	–
CC1(C)C=Cc2cc(-c3nc(NCCN4CCCC4)nc(C(Cl)(Cl)Cl)n3)ccc2O1 [Cmpd 553]	0.01863	0.01506	0.01596	–	–	–	–
CN(C)CCCNc1nc(-c2ccc(Cl)cc2)nc(C(Cl)(Cl)Cl)n1 [Cmpd 560]	0.02	0.009	0.018	–	–	–	–
CN(C)CCCNc1nc(C(Cl)(Cl)Cl)nc(C(Cl)(Cl)Cl)n1.ClC(Cl)(Cl)c1ccc(C(Cl)(Cl)Cl)cc1 [Cmpd 604]	0.224	0.363	0.628	–	–	–	–
COc1ccc(-c2nc(N3CCC(N)CC3)nc(C(Cl)(Cl)Cl)n2)c2ccccc12 [Compound 620, COC1═CC═C(C2═NC(═NC(═N2)C(Cl)(Cl)Cl)N2CCC(N)CC2)C2═C1C═CC═C2]	0.431	0.175	0.409	–	–	–	–
NC1CCN(c2nc(-c3ccccc3)nc(C(Cl)(Cl)Cl)n2)CC1 [Compound 621, NC1CCN(CC1)C1═NC(═NC(═N1)C1═CC═CC═C1)C(Cl)(Cl)Cl]	0.29	0.101	0.319	–	–	–	–
CC(C)(C)c1ccc(-c2nc(N3CCC(N)CC3)nc(C(Cl)(Cl)Cl)n2)cc1 [Compound 624, CC(C)(C)C1═CC═C(C═C1)C1═NC(═NC(═N1)C(Cl)(Cl)Cl)N1CCC(N)CC1]	0.091	0.043	0.062	–	–	–	–
NC1CCN(c2nc(-c3cccc(C(F)(F)F)c3)nc(C(Cl)(Cl)Cl)n2)CC1 [Compound 625, NC1CCN(CC1)C1═NC(═NC(═N1)C1═CC═CC(═C1)C(F)(F)F)C(Cl)(Cl)Cl]	0.047	0.012	0.02	–	–	–	–
CS(=O)(=O)c1ccc(-c2nc(N3CCC(N)CC3)nc(C(Cl)(Cl)Cl)n2)cc1 [Compound 627, CS(═O)(═O)C1═CC═C(C═C1)C1═NC(═NC(═N1)C(Cl)(Cl)Cl)N1CCC(N)CC1]	0.085	0.025	0.048	–	–	–	–
NC1CCN(c2nc(-c3ccc(Cl)cc3)nc(C(Cl)(Cl)Cl)n2)CC1 [Compound 630, NC1CCN(CC1)C1═NC(═NC(═N1)C(Cl)(Cl)Cl)C1═CC═C(Cl)C═C1]	0.012	0.01	0.013	–	–	–	–
NC1CCN(c2nc(-c3ccccc3[N+](=O)[O-])nc(C(Cl)(Cl)Cl)n2)CC1 [Compound 632, NC1CCN(CC1)C1═NC(═NC(═N1)C(Cl)(Cl)Cl)C1═C(C═CC═C1)[N+]([O−])═O]	0.064	0.04	0.058	–	–	–	–
NC1CCN(c2nc(-c3cccc(Cl)c3)nc(C(Cl)(Cl)Cl)n2)CC1 [Compound 633, NC1CCN(CC1)C1═NC(═NC(═N1)C(Cl)(Cl)Cl)C1═CC(Cl)═CC═C1]	0.01	0.008	0.01	–	–	–	–
COc1cc(OC)cc(-c2nc(N3CCC(N)CC3)nc(C(Cl)(Cl)Cl)n2)c1 [Compound 635, COC1═CC(═CC(OC)═C1)C1═NC(═NC(═N1)C(Cl)(Cl)Cl)N1CCC(N)CC1]	0.259	0.135	0.218	–	–	–	–

SMILES	D6 (SYBR Green Assay IC50) (P. falciparum D6) [µg/mL]	W2 (SYBR Green Assay IC50) (P. falciparum W2) [µg/mL]	C235 (SYBR Green Assay IC50) (P. falciparum C235) [µg/mL]	D6 (P. falciparum D6; SYBR Green Assay) [ng/mL]	W2 (P. falciparum W2; SYBR Green Assay) [ng/mL]	C235 (P. falciparum C235; SYBR Green Assay) [ng/mL]	other results
FC(F)(F)Oc1ccc(Nc2nc(NCCN3CCCC3)nc(C(Cl)(Cl)Cl)n2)cc1 [Compound 656, FC(F)(F)OC1═CC═C(NC2═NC(═NC(NCCN3CCCC3)═N2)C(Cl)(Cl)Cl)C═C1]	–	–	–	3	2	7	–
CSc1ccc(-c2nc(NCC3(N)CCCCC3)nc(C(Cl)(Cl)Cl)n2)cc1 [Compound 664, CSC1═CC═C(C═C1)C1═NC(NCC2(N)CCCCC2)═NC(═N1)C(Cl)(Cl)Cl]	–	–	–	18	21	47	–
NC1(CNc2nc(-c3ccc(Cl)c(Cl)c3)nc(C(Cl)(Cl)Cl)n2)CCCCC1 [Compound 670, NC1(CNC2═NC(═NC(═N2)C2═CC(Cl)═C(Cl)C═C2)C(Cl)(Cl)Cl)CCCCC1]	–	–	–	22	20	38	–
COc1ccc(-c2nc(NCC3(N)CCCC3)nc(C(Cl)(Cl)Cl)n2)cc1OC [Compound 674, COC1═C(OC)C═C(C═C1)C1═NC(NCC2(N)CCCC2)═NC(═N1)C(Cl)(Cl)Cl]	–	–	–	8	6	18	–
NC1(CNc2nc(-c3ccc(Cl)cc3)nc(C(Cl)(Cl)Cl)n2)CC1 [Compound 678, NC1(CNC2═NC(═NC(═N2)C2═CC═C(Cl)C═C2)C(Cl)(Cl)Cl)CC1]	–	–	–	11	12	20	–
Cc1ccc(-c2nc(NCC3(N)CC3)nc(C(Cl)(Cl)Cl)n2)cc1 [Compound 681, CC1═CC═C(C═C1)C1═NC(NCC2(N)CC2)═NC(═N1)C(Cl)(Cl)Cl]	–	–	–	593	328	750	–
NC1(CNc2nc(-c3cccc(C(F)(F)F)c3)nc(C(Cl)(Cl)Cl)n2)CC1 [Compound 682, NC1(CNC2═NC(═NC(═N2)C2═CC(═CC═C2)C(F)(F)F)C(Cl)(Cl)Cl)CC1]	–	–	–	68	31	82	–
CN(CC(=O)OC(C)(C)C)c1nc(-c2ccc(Cl)cc2)nc(C(Cl)(Cl)Cl)n1 [Compound 687, CN(CC(═O)OC(C)(C)C)c1nc(nc(n1)C(Cl)(Cl)Cl)c2ccc(Cl)cc2]	–	–	–	501	501	501	–
CC(=O)Nc1cccc(Nc2nc(-c3ccc(S(C)(=O)=O)cc3)nc(C(Cl)(Cl)Cl)n2)c1 [Compound 691, CC(═O)Nc1cccc(Nc2nc(nc(n2)C(Cl)(Cl)Cl)c3ccc(cc3)S(═O)(═O)C)c1]	–	–	–	341	256	705	–
CC(C)CN1CCC(Nc2nc(-c3ccc(Cl)cc3)nc(C(Cl)(Cl)Cl)n2)CC1 [Compound 693, CC(C)CN1CCC(CC1)NC1═NC(═NC(═N1)C(Cl)(Cl)Cl)C1═CC═C(Cl)C═C1]	–	–	–	37	29	69	–
CC(C)CN1CCC(Nc2nc(-c3cccc(Cl)c3)nc(C(Cl)(Cl)Cl)n2)CC1 [Compound 701, CC(C)CN1CCC(CC1)NC1═NC(═NC(═N1)C1═CC(Cl)═CC═C1)C(Cl)(Cl)Cl]	–	–	–	282	195	351	–
CC(=O)Nc1cccc(Nc2nc(C(Cl)(Cl)Cl)nc(C(Cl)(Cl)Cl)n2)c1 [Compound 727, CC(═O)Nc1cccc(Nc2nc(nc(n2)C(Cl)(Cl)Cl)C(Cl)(Cl)Cl)c1]	–	–	–	256	131	319	–
NC1CCCCC1Nc1nc(-c2ccc(Cl)c(Cl)c2)nc(C(Cl)(Cl)Cl)n1 (stereo not drawn) [Compound 740, NC1CCCCC1NC1═NC(═NC(═N1)C1═CC(Cl)═C(Cl)C═Cl)C(Cl)(Cl)Cl]	–	–	–	38	11	23	–
ClC(Cl)(Cl)c1nc(Nc2ccncc2)nc(-c2ccc(N3CCCC3)cc2)n1 [Compound 744, ClC(Cl)(Cl)C1═NC(NC2═CC═NC═C2)═NC(═N1)C1═CC═C(C═C1)N1CCCC1]	–	–	–	190	188	290	–
Oc1ccc(Nc2nc(NCCN3CCCC3)nc(C(Cl)(Cl)Cl)n2)cc1 [Compound 745, 4-((4-((2-(pyrrolidin-1-yl)ethyl)amino)-6-(trichloromethyl)-1,3,5-triazin-2-yl)amino)phenol]	–	–	–	–	–	–	IC50 (P. falciparum D6; [1]): 0.144 µg/mL (≈ 0.345 µM); IC50 (P. falciparum W2; [1]): 0.08 µg/mL (≈ 0.192 µM); IC50 (P. falciparum C235; [1]): 0.389 µg/mL (≈ 0.931 µM)
